From PubChem BioAssay AID212 (DTP/NCI, 2004)
Inconclusive results are not listed.

Tested on: BDF1 mice, colon carcinoma 38 sc, T/C %
Experiment: NCI In Vivo Anticancer Drug Screen. Data for tumor model Colon Carcinoma 38 (subcutaneous) in B6D2F1 (BDF1) mice
Conditions: endpoint: median tumor weight (est.), schedule: Q07DX002 (ip), higher = larger tumour
In short: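 Mice with transplanted tumors are treated with compound or vehicle. Survival or tumor size is then measured in both groups. The ratio of treated to control gives the reported figure.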

CCN1/C(=C/C=C/C=C/c2sc3ccccc3[n+]2CC)Sc2ccccc21
T/C (dose: 0.03 mg/kg/injection, vehicle: saline): 151 % of control
T/C (dose: 0.03 mg/kg/injection, vehicle: suspension in saline): 59 % of control
T/C (dose: 0.06 mg/kg/injection, vehicle: saline): 167 % of control
T/C (dose: 0.06 mg/kg/injection, vehicle: suspension in saline): 104 % of control
T/C (dose: 0.12 mg/kg/injection, vehicle: saline): 122 % of control
T/C (dose: 0.12 mg/kg/injection, vehicle: suspension in saline): 100 % of control
T/C (dose: 0.25 mg/kg/injection, vehicle: suspension in saline): 104 % of control
T/C (dose: 0.5 mg/kg/injection, vehicle: saline): 162 % of control
T/C (dose: 0.5 mg/kg/injection, vehicle: suspension in saline): 109 % of control
T/C (dose: 1.0 mg/kg/injection, vehicle: saline): 197 % of control
